Here are results for 3 compounds from patent US9084735B2, “Self-assembling bis-urea compounds for drug delivery” (International Business Machines Corporation, priority 2013, dated 2015).

The subject of data set [1] is S. aureus (ATCC No. 6538). Briefly: MIC by broth microdilution (OD600 growth inhibition). The data set is classed as cell-based, Staphylococcus aureus. Conditions: for growth inhibition of S. aureus by nanofibers alone (OD): blank nanofibers without drug. As to the method:
The minimum inhibitory concentrations (MICs) of the penG-loaded nanofibers were measured using a broth microdilution method. First, penG-loaded nanofiber solutions were diluted to give final penG concentrations of 0.05, 0.1, 0.5, 1.0, 5.0 and 10.0 mg/L. S. aureus was grown in tryptic soy broth (TSB) at 37° C. with 300 rpm. The optical density (OD) of the S. aureus solution was adjusted to OD600 nm=0.1 by the addition of TSB. This S. aureus solution was further diluted 100 times (5.7×10^6 CFU/mL). The penG-loaded nanofiber solution (100 microliters) was transferred to each well of a 96 well plate (NUNC), followed by the addition of 100 microliters of the S. aureus solution. TSB was used as a control. The optical density readings of S. aureus solutions were monitored by measuring OD600 nm at predetermined times (0 hours and 18 hours). The assay was performed in four replicates for each sample and the experiments were repeated at least three times.

A short description of data set [2]: Zeta potential of cationic nanofibers before and after drug encapsulation (piperacillin). The format is physicochemical. Conditions: for zeta potential of nanofibers after drug loading: after piperacillin loading; for zeta potential of nanofibers before drug loading: before piperacillin loading. An excerpt:
The zeta potential of cationic nanofibers before and after drug encapsulation was investigated using the drug piperacillin and C-4 and C-14. […] The zeta potential values of nanofibers of C-14 before and after drug loading were 36.3 and 21.1 mV, respectively. The reduced zeta potential was attributed to the electrostatic interaction between cationic nanofiber and the drug. This proves the formation of a complex between cationic nanofiber and the drug.

Data set [3] in a line: Critical micelle concentration of cationic compounds. The data set is classed as physicochemical. Particulars: in water.
Data set [4] in a line: Nanofiber morphology by TEM. The data set is classed as physicochemical. Particulars: C-4 200 mg/L, C-14 80 mg/L. As to the method: The morphologies of the cationic compounds were analyzed by TEM (FEI Tecnai G^2 F20 electron microscope). Cationic compounds solution (5 microliters) were placed on a copper grid coated with carbon film and incubated for 1 minute. Phosphotungstic acid solution (0.1 w/v, 5 microliters) was applied and incubated for another minute. The extra sample on the grid was absorbed by filter paper. The samples were air-dried at room temperature. The TEM observations were carried out with an electron kinetic energy of 200 keV.
FIGS. 2A to 2C are transmission electron micrographs (TEM) of a cast film of the nanofibers formed with C-4 at different magnifications.

Data set [5] can be described thus: Nanofiber dimensions by AFM. The format is physicochemical. Conditions: film/solution on mica. The method, then: Atomic force microscopy (AFM) images were acquired on commercial instrumentation under fluid in intermittent contact (‘tapping’) mode at a 0.5 Hz scan rate with silicon on nitride cantilevers of spring constant about 0.35 N/m. For this study, images were collected over scan areas from 1×1 micrometer to 10×10 micrometers at 1024×1024 pixel resolution. Samples were prepared by depositing 60 microliters of polymer solution (at a concentration appropriate for imaging) in water on mica. The statistical mean height (zm) of the nanoparticles was obtained through Gwyddion software for particle analysis using height threshold algorithm.
The dry nanofiber AFM (FIG. 3A) and solution AFM (FIGS. 3B and 3C) of nanofibers formed with C-4 show anisotropic structures having considerably shorter lengths and an average diameter of 4 nm.

For the compound `NCc1ccc(CNC(=O)Nc2ccc(CNC(=O)c3ccc(C(=O)NCc4ccc(NC(=O)NCc5ccc(CN)cc5)cc4)cc3)cc2)cc1` [Compound C-14], the “growth inhibition of S. aureus by nanofibers alone (OD)” value in data set [1] is on record as “do not inhibit growth”. In addition, in data set [2], the “zeta potential of nanofibers after drug loading” value is on record as 21.1 mV and the “zeta potential of nanofibers before drug loading” value came out at 36.3 mV. The same compound showed a CMC in data set [3] of 20 mg/L. Also, in data set [4], the “fiber diameter (TEM)” value is recorded as around 5 nm and the “fiber length (TEM)” value is recorded as “several hundred”.

Turning to `NCCCCNC(=O)Nc1ccc(CNC(=O)c2ccc(C(=O)NCc3ccc(NC(=O)NCCCCN)cc3)cc2)cc1` [Compound C-4], in data set [1], the “growth inhibition of S. aureus by nanofibers alone (OD)” value was “do not inhibit growth”. Besides, in data set [2], the “zeta potential of nanofibers after drug loading” value was 23.1 mV and the “zeta potential of nanofibers before drug loading” value was 35.2 mV. Moreover, the CMC in data set [3] amounted to 12 mg/L. For the same compound, the “fiber length (TEM)” value in data set [4] was “several hundred”. The “average fiber diameter (AFM)” value in data set [5] is 4 nm.

Regarding `CC1(C)S[C@@H]2[C@H](NC(=O)Cc3ccccc3)C(=O)N2[C@H]1C(=O)[O-].[K+]` [penG, Penicillin G potassium salt, reference compound], the “minimum concentration suppressing growth (MIC)” value in data set [1] (penG concentration, 18 hours, 5.7×10^6 CFU/mL, TSB) was 0.05 µg/mL.
